Reference: patent publication US11897851B2, “Heterocyclic GLP-1 agonists” (Gasherbrum Bio, Inc., priority 2021, dated 2024)

target: T1, GLP-1 Receptor (Homo sapiens, UniProt P43220); assay: GLP-1R agonist cAMP stimulation assay (HEK293/GLP1R/CRE-LUC cells, Cisbio cAMP dynamic 2 kit); format: cell-based; conditions: HEK293/CRE-Luc cell line stably expressing the GLP-1 Receptor; 1000 cells/well; 30 min at 37° C.; 0.5 mM IBMX, 0.1% BSA; read-out: GLP1R cAMP Stimulation DR: EC50;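 note: compounds tested in half-log serial dilution, cAMP detected with cAMP-d2 and anti-cAMP cryptate antibody reagents after 1 h at room temperature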
T1 construct: host or cells: HEK293/GLP1R/CRE-LUC (HEK293/CRE-Luc stably expressing the GLP-1 receptor)
T1 sequence (P43220 24-463, species assumed): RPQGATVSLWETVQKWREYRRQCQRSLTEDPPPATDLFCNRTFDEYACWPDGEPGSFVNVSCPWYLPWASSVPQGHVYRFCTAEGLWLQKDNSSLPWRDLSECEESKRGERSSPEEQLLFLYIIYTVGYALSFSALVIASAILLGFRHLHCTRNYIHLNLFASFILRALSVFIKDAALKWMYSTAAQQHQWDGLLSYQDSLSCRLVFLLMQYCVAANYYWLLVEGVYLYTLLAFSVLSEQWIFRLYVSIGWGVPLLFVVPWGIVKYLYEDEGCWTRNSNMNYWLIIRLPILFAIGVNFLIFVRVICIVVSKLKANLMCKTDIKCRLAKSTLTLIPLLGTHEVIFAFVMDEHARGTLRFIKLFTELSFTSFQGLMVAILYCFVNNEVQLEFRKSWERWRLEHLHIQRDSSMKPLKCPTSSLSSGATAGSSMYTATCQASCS

EC50 | Compound
0.073 nM | CC1(c2ccc(Cl)cc2F)Oc2cccc(C3CCN(Cc4ncc(/C=C/C(=O)O)n4CC4(C#N)CC4)CC3)c2O1 (stereo not shown) [Compound 192, (E)-3-(2-((4-(2-(4-chloro-2-fluorophenyl)-2-methylbenzo[d][1,3]dioxol-4-yl)piperidin-1-yl)methyl)-1-((1-cyanocyclopropyl)methyl)-1H-imidazol-5-yl)acrylic acid]
0.11 nM | CC#CCn1c(/C=C/C(=O)O)cnc1CN1CCC(c2cccc3c2OC(C)(c2ccc(Cl)cc2F)O3)CC1 (stereo not shown) [Compound 193, (E)-3-(1-(but-2-yn-1-yl)-2-((4-(2-(4-chloro-2-fluorophenyl)-2-methylbenzo[d][1,3]dioxol-4-yl)piperidin-1-yl)methyl)-1H-imidazol-5-yl)acrylic acid]
0.064 nM | CC1(c2ccc(Cl)cc2F)Oc2cccc(C3CCN(Cc4ncc(/C=C/C(=O)O)n4CC4COC4)CC3)c2O1 (stereo not shown) [Compound 194, (E)-3-(2-((4-(2-(4-chloro-2-fluorophenyl)-2-methylbenzo[d][1,3]dioxol-4-yl)piperidin-1-yl)methyl)-1-(oxetan-3-ylmethyl)-1H-imidazol-5-yl)acrylic acid]
0.091 nM | COCCCn1c(/C=C/C(=O)O)cnc1CN1CCC(c2cccc3c2OC(C)(c2ccc(Cl)cc2F)O3)CC1 (stereo not shown) [Compound 195, (E)-3-(2-((4-(2-(4-chloro-2-fluorophenyl)-2-methylbenzo[d][1,3]dioxol-4-yl)piperidin-1-yl)methyl)-1-(3-methoxypropyl)-1H-imidazol-5-yl)acrylic acid]
0.058 nM | COC1(Cn2c(/C=C/C(=O)O)cnc2CN2CCC(c3cccc4c3OC(C)(c3ccc(Cl)cc3F)O4)CC2)CC1 (stereo not shown) [Compound 196, (E)-3-(2-((4-(2-(4-chloro-2-fluorophenyl)-2-methylbenzo[d][1,3]dioxol-4-yl)piperidin-1-yl)methyl)-1-((1-methoxycyclopropyl)methyl)-1H-imidazol-5-yl)acrylic acid]
0.019 nM | CCOCCn1c(/C=C/C(=O)O)cnc1CN1CCC(c2cccc3c2OC(C)(c2ccc(Cl)cc2F)O3)CC1 (stereo not shown) [Compound 197, (E)-3-(2-((4-(2-(4-chloro-2-fluorophenyl)-2-methylbenzo[d][1,3]dioxol-4-yl)piperidin-1-yl)methyl)-1-(2-ethoxyethyl)-1H-imidazol-5-yl)acrylic acid]
0.0095 nM | C[C@]1(c2ccc(Cl)cc2F)Oc2cccc(C3CCN(Cc4ncc(/C=C/C(=O)O)n4CCOCC(F)(F)F)CC3)c2O1 [Compound 198a, (S,E)-3-(2-((4-(2-(4-chloro-2-fluorophenyl)-2-methylbenzo[d][1,3]dioxol-4-yl)piperidin-1-yl)methyl)-1-(2-(2,2,2-trifluoroethoxy)ethyl)-1H-imidazol-5-yl)acrylic acid]
1.6 nM | Cc1ncoc1Cn1c(/C=C/C(=O)O)cnc1CN1CCC(c2cccc3c2OC[C@@H](c2ccc(Cl)cc2)O3)CC1 [Compound 199a, (R,E)-3-(2-((4-(2-(4-chlorophenyl)-2,3-dihydrobenzo [b][1,4]dioxin-5-yl)piperidin-1-yl)methyl)-1-((4-methyloxazol-5-yl)methyl)-1H-imidazol-5-yl)acrylic acid]
0.22 nM | CC1(c2ccc(Cl)cc2F)Oc2cccc(C3CCN(Cc4ncc(/C=C/C(=O)O)n4CCN4CCOC4=O)CC3)c2O1 (stereo not shown) [Compound 200, (E)-3-(2-((4-(2-(4-chloro-2-fluorophenyl)-2-methylbenzo[d][1,3]dioxol-4-yl)piperidin-1-yl)methyl)-1-(2-(2-oxooxazolidin-3-yl)ethyl)-1H-imidazol-5-yl)acrylic acid]

Compound | EC50
CC1(c2ccc(Cl)cc2F)Oc2cccc(C3CCN(Cc4ncc(/C=C/C(=O)O)n4CCOC4CC4)CC3)c2O1 (stereo not shown) [Compound 201, (E)-3-(2-((4-(2-(4-chloro-2-fluorophenyl)-2-methylbenzo[d][1,3]dioxol-4-yl)piperidin-1-yl)methyl)-1-(2-cyclopropoxyethyl)-1H-imidazol-5-yl)acrylic acid] | 0.034 nM
